#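 1) Cells in 96-well plates. 2) Compound, 48 h, 5 concentrations. 3) Linear interpolation between surrounding doses. 4) Unreached endpoint = highest concentration. GI50 marks 50% less growth. TGI: total growth inhibition.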
# Legend:
# Assay in all cases: NCI-60 cell line screen, 48 h
# 786-0 renal = tested on: 786-0 renal
# A498 renal = tested on: A498 renal
# A549 NSCLC = tested on: A549 NSCLC
# ACHN renal = tested on: ACHN renal
# BT-549 breast = tested on: BT-549 breast
# CAKI-1 renal = tested on: CAKI-1 renal
# CCRF-CEM leukemia = tested on: CCRF-CEM leukemia
# COLO 205 colon = tested on: COLO 205 colon
# DU-145 prostate = tested on: DU-145 prostate
# EKVX NSCLC = tested on: EKVX NSCLC
# HCC-2998 colon = tested on: HCC-2998 colon
# HCT-116 colon = tested on: HCT-116 colon
# HCT-15 colon = tested on: HCT-15 colon
# HOP-62 NSCLC = tested on: HOP-62 NSCLC
# HOP-92 NSCLC = tested on: HOP-92 NSCLC
# HS 578T breast = tested on: HS 578T breast
# HT29 colon = tested on: HT29 colon
# IGROV1 ovarian = tested on: IGROV1 ovarian
# K-562 leukemia = tested on: K-562 leukemia
# KM12 colon = tested on: KM12 colon
# LOX IMVI melanoma = tested on: LOX IMVI melanoma
# M14 melanoma = tested on: M14 melanoma
# MALME-3M melanoma = tested on: MALME-3M melanoma
# MCF7 breast = tested on: MCF7 breast
# MDA-MB-231 breast = tested on: MDA-MB-231 breast
# MDA-MB-435 = tested on: MDA-MB-435
# MOLT-4 leukemia = tested on: MOLT-4 leukemia
# NCI-H226 lung = tested on: NCI-H226 lung
# NCI-H23 lung = tested on: NCI-H23 lung
# NCI-H460 lung = tested on: NCI-H460 lung
# NCI-H522 lung = tested on: NCI-H522 lung
# NCI/ADR-RES ovarian = tested on: NCI/ADR-RES ovarian
# OVCAR-3 ovarian = tested on: OVCAR-3 ovarian
# OVCAR-4 ovarian = tested on: OVCAR-4 ovarian
# OVCAR-5 ovarian = tested on: OVCAR-5 ovarian
# OVCAR-8 ovarian = tested on: OVCAR-8 ovarian
# PC-3 prostate = tested on: PC-3 prostate
# RPMI-8226 leukemia = tested on: RPMI-8226 leukemia
# RXF 393 renal = tested on: RXF 393 renal
# SF-268 CNS = tested on: SF-268 CNS
# SF-295 CNS = tested on: SF-295 CNS
# SF-539 CNS = tested on: SF-539 CNS
# SK-MEL-2 melanoma = tested on: SK-MEL-2 melanoma
# SK-MEL-28 melanoma = tested on: SK-MEL-28 melanoma
# SK-MEL-5 melanoma = tested on: SK-MEL-5 melanoma
# SK-OV-3 ovarian = tested on: SK-OV-3 ovarian
# SN12C renal = tested on: SN12C renal
# SNB-19 CNS = tested on: SNB-19 CNS
# SNB-75 CNS = tested on: SNB-75 CNS
# SR leukemia = tested on: SR leukemia
# SW-620 colon = tested on: SW-620 colon
# T-47D breast = tested on: T-47D breast
# TK-10 renal = tested on: TK-10 renal
# U251 CNS = tested on: U251 CNS
# UACC-257 melanoma = tested on: UACC-257 melanoma
# UACC-62 melanoma = tested on: UACC-62 melanoma
# UO-31 renal = tested on: UO-31 renal
structure (smiles),measurement,setting,value
O=C1NC(=C(Cl)Cl)/C(=N/S(=O)(=O)N2CCCCC2CC2(C(F)(F)F)N=N2)N1 (centres undefined),GI50,786-0 renal,3.2 µM
same,TGI,786-0 renal,9.62 µM
same,GI50,A498 renal,11.4 µM
same,TGI,A498 renal,24.1 µM
same,GI50,A549 NSCLC,3.72 µM
same,TGI,A549 NSCLC,14 µM
same,GI50,ACHN renal,1.74 µM
same,TGI,ACHN renal,3.12 µM
same,GI50,BT-549 breast,1.89 µM
same,TGI,BT-549 breast,3.67 µM
same,GI50,CAKI-1 renal,1.7 µM
same,TGI,CAKI-1 renal,3.09 µM
same,GI50,CCRF-CEM leukemia,1.99 µM
same,TGI,CCRF-CEM leukemia,5.57 µM
same,GI50,COLO 205 colon,1.89 µM
same,TGI,COLO 205 colon,3.68 µM
same,GI50,DU-145 prostate,3.47 µM
same,TGI,DU-145 prostate,11.8 µM
same,GI50,EKVX NSCLC,2.04 µM
same,TGI,EKVX NSCLC,4.33 µM
same,GI50,HCC-2998 colon,1.86 µM
same,TGI,HCC-2998 colon,3.38 µM
same,GI50,HCT-116 colon,1.73 µM
same,TGI,HCT-116 colon,3.26 µM
same,GI50,HCT-15 colon,0.398 µM
same,TGI,HCT-15 colon,1.5 µM
same,GI50,HOP-62 NSCLC,3.22 µM
same,TGI,HOP-62 NSCLC,13.5 µM
same,GI50,HOP-92 NSCLC,1.73 µM
same,TGI,HOP-92 NSCLC,3.61 µM
same,GI50,HS 578T breast,2.83 µM
same,TGI,HS 578T breast,9.84 µM
same,GI50,HT29 colon,1.88 µM
same,TGI,HT29 colon,3.61 µM
same,GI50,IGROV1 ovarian,1.58 µM
same,TGI,IGROV1 ovarian,3.09 µM
same,GI50,K-562 leukemia,0.628 µM
same,TGI,K-562 leukemia,10.8 µM
same,GI50,KM12 colon,3.14 µM
same,TGI,KM12 colon,12.2 µM
same,GI50,LOX IMVI melanoma,0.43 µM
same,TGI,LOX IMVI melanoma,1.58 µM
same,GI50,M14 melanoma,1.85 µM
same,TGI,M14 melanoma,3.93 µM
same,GI50,MALME-3M melanoma,1.57 µM
same,TGI,MALME-3M melanoma,2.99 µM
same,GI50,MCF7 breast,0.769 µM
same,TGI,MCF7 breast,11.8 µM
same,GI50,MDA-MB-231 breast,1.73 µM
same,TGI,MDA-MB-231 breast,3.44 µM
same,GI50,MDA-MB-435,2.24 µM
same,TGI,MDA-MB-435,5.38 µM
same,GI50,MOLT-4 leukemia,1.68 µM
same,TGI,MOLT-4 leukemia,4.43 µM
same,GI50,NCI-H226 lung,15.5 µM
same,TGI,NCI-H226 lung,44.4 µM
same,GI50,NCI-H23 lung,1.71 µM
same,TGI,NCI-H23 lung,3.77 µM
same,GI50,NCI-H460 lung,3.06 µM
same,TGI,NCI-H460 lung,10.7 µM
same,GI50,NCI-H522 lung,1.54 µM
same,TGI,NCI-H522 lung,3.13 µM
same,GI50,NCI/ADR-RES ovarian,3.45 µM
same,TGI,NCI/ADR-RES ovarian,15.4 µM
same,GI50,OVCAR-3 ovarian,2.05 µM
same,TGI,OVCAR-3 ovarian,4.13 µM
same,GI50,OVCAR-4 ovarian,1.76 µM
same,TGI,OVCAR-4 ovarian,3.2 µM
same,GI50,OVCAR-5 ovarian,1.9 µM
same,TGI,OVCAR-5 ovarian,3.84 µM
same,GI50,OVCAR-8 ovarian,2.21 µM
same,TGI,OVCAR-8 ovarian,5.17 µM
same,GI50,PC-3 prostate,2.26 µM
same,TGI,PC-3 prostate,6.37 µM
same,GI50,RPMI-8226 leukemia,0.385 µM
same,TGI,RPMI-8226 leukemia,8.08 µM
same,GI50,RXF 393 renal,1.67 µM
same,TGI,RXF 393 renal,3.22 µM
same,GI50,SF-268 CNS,3.35 µM
same,TGI,SF-268 CNS,13.1 µM
same,GI50,SF-295 CNS,3.23 µM
same,TGI,SF-295 CNS,12.1 µM
same,GI50,SF-539 CNS,1.79 µM
same,TGI,SF-539 CNS,3.56 µM
same,GI50,SK-MEL-2 melanoma,1.86 µM
same,TGI,SK-MEL-2 melanoma,3.9 µM
same,GI50,SK-MEL-28 melanoma,1.85 µM
same,TGI,SK-MEL-28 melanoma,3.33 µM
same,GI50,SK-MEL-5 melanoma,2.4 µM
same,TGI,SK-MEL-5 melanoma,5.93 µM
same,GI50,SK-OV-3 ovarian,15.1 µM
same,TGI,SK-OV-3 ovarian,29.8 µM
same,GI50,SN12C renal,1.29 µM
same,TGI,SN12C renal,2.57 µM
same,GI50,SNB-19 CNS,2 µM
same,TGI,SNB-19 CNS,4.53 µM
same,GI50,SNB-75 CNS,3.5 µM
same,TGI,SNB-75 CNS,17.4 µM
same,GI50,SR leukemia,0.431 µM
same,TGI,SR leukemia,2.67 µM
same,GI50,SW-620 colon,1.67 µM
same,TGI,SW-620 colon,3.24 µM
same,GI50,T-47D breast,4.16 µM
same,TGI,T-47D breast,22.1 µM
same,GI50,TK-10 renal,4.53 µM
same,TGI,TK-10 renal,14.2 µM
same,GI50,U251 CNS,1.86 µM
same,TGI,U251 CNS,3.67 µM
same,GI50,UACC-257 melanoma,1.96 µM
same,TGI,UACC-257 melanoma,4.48 µM
same,GI50,UACC-62 melanoma,1.74 µM
same,TGI,UACC-62 melanoma,3.57 µM
same,GI50,UO-31 renal,2.69 µM
same,TGI,UO-31 renal,12.4 µM
